EC50 and Emax data for 25 compounds are collected here from patent US11802135B2, “Lysophosphatidic acid derivative” (MITSUBISHI TANABE PHARMA CORPORATION, priority 2021, dated 2023).

Where a name gives a salt, the structure may show the parent alone. Read-outs that look alike come from different tables or passages of the source.

The target in one experiment is T1, human LPA1 receptor (Homo sapiens, UniProt Q92633).
T1 construct: expressed in transfected cells; host or cells: rat hepatocellular carcinoma cell line RH7777 (made 'similarly' to the LPA4 line)
In words: LPA1/SRE-luc reporter assay in RH7777 cells stably expressing human LPA1 receptor and SRE-Luc2. The format is cell-based. The settings on record: read-out: LPA1/SRE-luc EC50. The procedure:
(§1) A stably expressing cell line that constantly expresses the human LPA4 receptor and SRE-Luc2 was established by the gene targeting introduction method of the rat hepatocellular carcinoma cell line RH7777 into rRosa26 site. Similarly, stably expressing cell lines for human LPA1 receptor and SRE-Luc2 were also established. Each cell line was seeded on a collagen-coated dish and maintained in culture, and cells were collected with trypsin EDTA and the required number (5×10^3 cells/well) was seeded on a 96-well plate. After culturing overnight at 37° C., LPA (Avanti Polar Lipids, Inc.) or each Example compound diluted with an assay medium added or not added with BSA was added, and the cells were cultured at 37° C. for 6 hr. Thereafter, a luciferase detection reagent (Bright-Glo, Promega) was added, and the chemiluminescence amount was quantified with an Envision (registered trade mark) multi-label counter (PerkinElmer) and used as an index of agonist activity.
(§2) The EC50 value of LPA or each Example compound was calculated using the […] Graph pad Prism for Windows ver.5.02 and ver.7.04. % Emax was expressed as the ratio of the maximum response (Emax) of LPA or each Example compound to the maximum response (Emax) of the positive control compound VPC 31144S (N-{(1S)-2-hydroxy-1-[(phosphonooxy)methyl]ethyl}(9Z) cctadec-9-enamide), with the Emax of the positive control compound VPC 31144S as 100%.

A further experiment deals with T2, human LPA4 receptor (Homo sapiens, UniProt Q99677).
T2 construct: expressed in transfected cells; host or cells: rat hepatocellular carcinoma cell line RH7777, targeted integration at the rRosa26 site
In words: LPA4/SRE-luc reporter assay in RH7777 cells stably expressing human LPA4 receptor and SRE-Luc2. As to conditions: for EC50: read-out: LPA4/SRE-luc EC50. The format is cell-based. As to the method:
as §1, §2

Where [1] appears, read: RH7777, BSA not added, Emax of positive control VPC 31144S as 100%, read-out: LPA4/SRE-luc % Emax.
The mark [2] stands for this setting: RH7777, read-out: LPA4/SRE-luc % Emax.
Setting [3] is: RH7777, BSA added, Emax of positive control VPC 31144S as 100%, read-out: LPA4/SRE-luc % Emax.

T2 sequence (Q99677 whole entry): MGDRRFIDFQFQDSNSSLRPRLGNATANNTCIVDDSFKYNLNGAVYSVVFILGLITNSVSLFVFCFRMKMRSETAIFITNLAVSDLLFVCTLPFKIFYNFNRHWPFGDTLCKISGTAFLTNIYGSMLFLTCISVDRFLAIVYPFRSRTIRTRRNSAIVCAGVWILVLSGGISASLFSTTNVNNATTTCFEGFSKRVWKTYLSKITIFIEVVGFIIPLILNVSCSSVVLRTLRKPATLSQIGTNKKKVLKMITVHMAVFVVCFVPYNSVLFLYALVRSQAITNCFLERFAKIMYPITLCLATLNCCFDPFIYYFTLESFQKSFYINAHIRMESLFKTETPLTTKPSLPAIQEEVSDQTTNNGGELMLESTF
T1 sequence (Q92633 whole entry): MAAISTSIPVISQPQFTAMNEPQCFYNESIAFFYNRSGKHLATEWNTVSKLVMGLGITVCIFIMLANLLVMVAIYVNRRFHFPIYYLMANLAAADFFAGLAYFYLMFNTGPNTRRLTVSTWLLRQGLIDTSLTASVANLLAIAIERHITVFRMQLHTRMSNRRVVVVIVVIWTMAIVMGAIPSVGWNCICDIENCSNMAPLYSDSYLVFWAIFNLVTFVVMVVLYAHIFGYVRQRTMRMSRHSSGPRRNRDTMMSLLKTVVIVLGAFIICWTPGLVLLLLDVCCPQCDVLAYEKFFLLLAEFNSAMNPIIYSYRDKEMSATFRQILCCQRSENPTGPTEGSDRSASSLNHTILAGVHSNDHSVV

For the compound `CCCCCCCCCOc1ccc(CCC(=O)N2CC(OP(=O)(O)O)C2)cc1` [Example 1, 1-{3-[4-(Nonyloxy)phenyl]propanoyl}azetidin-3-yl dihydrogen phosphate ammonium salt], the EC50 was above 10000 nM on human LPA1 receptor (BSA not added) and 28 nM at human LPA4 receptor (BSA not added). In addition, the Emax at human LPA4 receptor (setting [1]) amounted to 119%.

In the case of `CCCCCCc1ccc(CCCCC(=O)N2CC(OP(=O)(O)O)C2)cc1` [Example 7, 1-[5-(4-Hexylphenyl)pentanoyl]azetidin-3-yl dihydrogen phosphate], the EC50 is above 10000 nM at human LPA1 receptor (BSA not added) and 37 nM at human LPA4 receptor (BSA not added). In addition, the Emax on human LPA4 receptor (setting [1]) worked out at 125%.

For `Cc1ccc(CCCCCCCCCC(=O)N2CC(OP(=O)(O)O)C2)cc1` [Example 10, 1-[10-(4-Methylphenyl)decanoyl]azetidin-3-yl dihydrogen phosphate], the EC50 at human LPA1 receptor (BSA not added) is above 10000 nM; on human LPA4 receptor (BSA not added), 30 nM. Also, the Emax on human LPA4 receptor (setting [2]) came out at 101%.

Regarding `CCCc1ccc(CCCCCCCC(=O)N2CC(OP(=O)(O)O)C2)cc1` [Example 15, 1-[8-(4-Propylphenyl)octanoyl]azetidin-3-yl dihydrogen phosphate], the EC50 on human LPA1 receptor (BSA not added) was above 10000 nM; at human LPA4 receptor (BSA not added), 42 nM. At human LPA4 receptor (setting [1]), the Emax stood at 75%.

Regarding `CCCCCCCCCCOc1cccc(CCC(=O)N2CC[C@@H](OP(=O)(O)O)C2)c1` [Example 18, (3R)-1-{3-[3-(Decyloxy)phenyl]propanoyl}pyrrolidin-3-yl dihydrogen phosphate ammonium salt], the EC50 on human LPA1 receptor (BSA not added) was above 10000 nM; at human LPA4 receptor (BSA not added) it was 1.9 nM. On human LPA4 receptor (setting [1]), the Emax is 122%.

Consider `CCCCCCCCCOc1ccc(CCC(=O)N2CC[C@@H](OP(=O)(O)O)C2)cc1` [Example 20, (3R)-1-{3-[4-(Nonyloxy)phenyl]propanoyl}pyrrolidin-3-yl dihydrogen phosphate ammonium salt], for which the EC50 was above 10000 nM on human LPA1 receptor (BSA not added) and 20 nM on human LPA4 receptor (BSA not added). Besides, the Emax on human LPA4 receptor (setting [1]) was 153%.

In the case of `CCc1ccc(CCCCCCCCC(=O)N2CC[C@@H](OP(=O)(O)O)C2)cc1` [Example 24, (3R)-1-[9-(4-Ethylphenyl)nonanoyl]pyrrolidin-3-yl dihydrogen phosphate ammonium salt], the EC50 on human LPA1 receptor (BSA not added) is above 10000 nM; at human LPA4 receptor (BSA not added) it was 5.6 nM. Besides, at human LPA4 receptor (setting [1]), the Emax came to 138%.

As for `CCCCCCCCOc1ccc(CCCC(=O)N2CC(OP(=O)(O)O)C2)cc1` [Example 26, 1-{4-[4-(Octyloxy)phenyl]butanoyl}azetidin-3-yl dihydrogen phosphate], the EC50 at human LPA1 receptor (BSA not added) is above 10000 nM; on human LPA4 receptor (BSA not added), 10 nM. Further, the Emax at human LPA4 receptor (setting [2]) came to 125%.

`Cc1ccc(CCc2ccc(CCCC(=O)N3CC[C@@H](OP(=O)(O)O)C3)cc2)cc1` [Example 29, (3R)-1-(4-{4-[2-(4-Methylphenyl)ethyl]phenyl}butanoyl)pyrrolidin-3-yl dihydrogen phosphate ammonium salt]: the EC50 on human LPA1 receptor (BSA not added) was above 10000 nM; on human LPA4 receptor (BSA not added), 45 nM. Also, the Emax on human LPA4 receptor (setting [1]) turned out to be 145%.

Take `CCCCCCCCCCOc1cccc(CCC(=O)N(CCOP(=O)(O)O)CC(C)C)c1` [Example 33, 2-[{3-[3-(Decyloxy)phenyl]propanoyl}(2-methylpropyl)amino]ethyl dihydrogen phosphate ammonium salt]: the values for the EC50 on human LPA1 receptor (BSA not added) and at human LPA4 receptor (BSA not added) were above 10000 nM and 33 nM, respectively. The Emax on human LPA4 receptor (setting [1]) was 121%.

With `CCCCCCCCc1cccc(CCCCCCCC(=O)N2CC(OP(=O)(O)O)C2)c1` [Example compound 43, 1-[8-(3-Octylphenyl)octanoyl]azetidin-3-yl dihydrogen phosphate ammonium salt], the results for the EC50 at human LPA1 receptor (BSA not added) and at human LPA4 receptor (BSA not added) were above 10000 nM and 27 nM, respectively. In addition, the Emax on human LPA4 receptor (setting [1]) was determined as 86%.

Turning to `CCCCCCCCCCOc1cccc(CCC(=O)N(CCCCOC)CCOP(=O)(O)O)c1` [Example compound 47, 2-[{3-[3-(Decyloxy)phenyl]propanoyl}(4-methoxybutyl)amino]ethyl dihydrogen phosphate ammonium salt], the values for the EC50 at human LPA1 receptor (BSA not added) and at human LPA4 receptor (BSA not added) were above 10000 nM and 46 nM, respectively. For the same compound, at human LPA4 receptor (setting [1]), the Emax stood at 94%.

Regarding `CCCCCCCCCCOc1cccc(CCC(=O)N(CCCCCO)CCOP(=O)(O)O)c1` [Example compound 50, 2-[{3-[3-(Decyloxy)phenyl]propanoyl}(5-hydroxypentyl)amino]ethyl dihydrogen phosphate ammonium salt], the EC50 at human LPA1 receptor (BSA not added) was above 1000 nM; at human LPA4 receptor (BSA not added), 23 nM. For the same compound, the Emax on human LPA4 receptor (setting [1]) came out at 79%.

Turning to `CCCCCCCCCCOc1cccc(CCC(=O)N(CCOP(=O)(O)O)Cc2ccc(OC)cc2)c1` [Example compound 54, 2-[{3-[3-(Decyloxy)phenyl]propanoyl}(4-methoxybenzyl)amino]ethyl dihydrogen phosphate ammonium salt], the EC50 is above 10000 nM on human LPA1 receptor (BSA not added) and below 41 nM on human LPA4 receptor (BSA not added). Also, at human LPA4 receptor (setting [1]), the Emax worked out at 106%.

For `CCCCCCCCCCOc1cccc(CCC(=O)N(CCOP(=O)(O)O)Cc2ccncc2)c1` [Example compound 58, 2-[{3-[3-(Decyloxy)phenyl]propanoyl}(pyridin-4-ylmethyl)amino]ethyl dihydrogen phosphate ammonium salt], the values for the EC50 on human LPA1 receptor (BSA not added) and at human LPA4 receptor (BSA not added) were above 3000 nM and below 41 nM, respectively. For the same compound, at human LPA4 receptor (setting [1]), the Emax worked out at 148%.

As for `CCCCCCCc1ccc(CCCCC(=O)N2CC(OP(=O)(O)O)C2)cc1` [Example compound 59, 1-[5-(4-Heptylphenyl)pentanoyl]azetidin-3-yl dihydrogen phosphate ammonium salt], the EC50 at human LPA1 receptor (BSA not added) was above 10000 nM; on human LPA4 receptor (BSA not added), below 41 nM. Further, the Emax on human LPA4 receptor (setting [1]) worked out at 86%.

Consider `CC(C)c1ccc(CCCCCCCCC(=O)N2CC(OP(=O)(O)O)C2)cc1` [Example compound 66, 1 {9-[4-(Propan-2-yl)phenyl]nonanoyl}azetidin-3-yl dihydrogen phosphate], for which the EC50 on human LPA1 receptor (BSA not added) is above 10000 nM; at human LPA4 receptor (BSA not added), below 41 nM. For the same compound, the Emax on human LPA4 receptor (setting [1]) came out at 280%.

On to `O=C(CCCCCCCCc1ccc(C2CC2)cc1)N1CC(OP(=O)(O)O)C1` [Example compound 87, 1-[9-(4-Cyclopropylphenyl)nonanoyl]azetidin-3-yl dihydrogen phosphate ammonium salt], for which the EC50 at human LPA1 receptor (BSA added) was above 10000 nM; on human LPA4 receptor (BSA added), 50 nM. Moreover, the Emax on human LPA4 receptor (setting [3]) turned out to be 97%.

Consider `O=C(CCCCc1cccc(OCCCCC2CCCCC2)c1)N1CC(OP(=O)(O)O)C1` [Example compound 88, 1-{5-[3-(4-Cyclohexylbutoxy)phenyl]pentanoyl}azetidinyl dihydrogen phosphate ammonium salt], for which the EC50 on human LPA1 receptor (BSA added) was above 10000 nM; at human LPA4 receptor (BSA added) it was 20 nM. The Emax at human LPA4 receptor (setting [3]) was 152%.

Take `O=C(CCCCCCCCc1ccc(C2CCCCC2)cc1)N1CC(OP(=O)(O)O)C1` [Example compound 93, 1-[9-(4-Cyclohexylphenyl)nonanoyl]azetidin-3-yl dihydrogen phosphate]: the EC50 is above 10000 nM at human LPA1 receptor (BSA added) and below 41 nM on human LPA4 receptor (BSA added). Further, the Emax on human LPA4 receptor (setting [3]) came out at 113%.

Take `CCCCCCCCCCOc1cccc(CCC(=O)N(CCOP(=O)(O)O)Cc2cccc(OC)c2)c1` [Example compound 95, 2-[{3-[3-(Decyloxy)phenyl]propanoyl}(3-methoxybenzyl)amino]ethyl dihydrogen phosphate ammonium salt]: the EC50 was above 10000 nM at human LPA1 receptor (BSA added) and below 41 nM at human LPA4 receptor (BSA added). On human LPA4 receptor (setting [3]), the Emax worked out at 136%.

`CCCCCCCc1ccc(CCCCC(=O)N2CC(OP(=O)(O)O)C2)c(C(F)(F)F)c1` [Example compound 100, 1-{5-[4-Heptyl-2-(trifluoromethyl)phenyl]pentanoyl}azetidin-3-yl dihydrogen phosphate ammonium salt]: the values for the EC50 on human LPA1 receptor (BSA added) and at human LPA4 receptor (BSA added) were above 10000 nM and 40 nM, respectively. Also, the Emax at human LPA4 receptor (setting [3]) worked out at 108%.

For the compound `CCCc1ccc(CCCCCCCCC(=O)N(CCOP(=O)(O)O)Cc2cncs2)cc1` [Example compound 102, 2-{[9-(4-Propylphenyl)nonanoyl] (1,3-thiazol-5-ylmethyl)amino}ethyl dihydrogen phosphate ammonium salt], the EC50 on human LPA1 receptor (BSA added) was above 10000 nM; at human LPA4 receptor (BSA added), 47 nM. Further, the Emax on human LPA4 receptor (setting [3]) is 121%.

As to `COc1ccc(CN(CCOP(=O)(O)O)C(=O)CCCCc2ccc(OCCc3ccc(OC(F)(F)F)cc3)cc2)cc1` [Example compound 115, 2-{(4-Methoxybenzyl)[5-(4-{2-[4-(trifluoromethoxy)phenyl]ethoxy}phenyl)pentanoyl]amino}ethyl dihydrogen phosphate ammonium salt], the EC50 at human LPA1 receptor (BSA added) is above 10000 nM; on human LPA4 receptor (BSA added), below 41 nM. Further, at human LPA4 receptor (setting [3]), the Emax stood at 114%.

As to `CCCCCCc1ccc(CCCCCCCCC(=O)N2CC(OP(=O)(O)O)C2)cc1` [Example compound 118, 1-[9-(4-Hexylphenyl)nonanoyl]azetidin-3-yl dihydrogen phosphate], the EC50 was above 10000 nM at human LPA1 receptor (BSA added) and below 41 nM at human LPA4 receptor (BSA added). Moreover, the Emax at human LPA4 receptor (setting [3]) stood at 114%.
